Data taken from ChEMBL document CHEMBL1131281, “Cyclopentanedi- and tricarboxylic acids as squalene synthase inhibitors: syntheses and evaluation” (Bioorg Med Chem Lett, 1998).

What follows are compounds tested against T1, Squalene synthase (Rattus norvegicus, UniProt Q02769) (assay: Percent inhibition of squalene synthase from rat liver microsomes using [3H]farnesyl pyrophosphate (FPP) as substrate; NA indicates <20% inhibition at 1 uM concentration).
T1 sequence (Q02769 whole entry): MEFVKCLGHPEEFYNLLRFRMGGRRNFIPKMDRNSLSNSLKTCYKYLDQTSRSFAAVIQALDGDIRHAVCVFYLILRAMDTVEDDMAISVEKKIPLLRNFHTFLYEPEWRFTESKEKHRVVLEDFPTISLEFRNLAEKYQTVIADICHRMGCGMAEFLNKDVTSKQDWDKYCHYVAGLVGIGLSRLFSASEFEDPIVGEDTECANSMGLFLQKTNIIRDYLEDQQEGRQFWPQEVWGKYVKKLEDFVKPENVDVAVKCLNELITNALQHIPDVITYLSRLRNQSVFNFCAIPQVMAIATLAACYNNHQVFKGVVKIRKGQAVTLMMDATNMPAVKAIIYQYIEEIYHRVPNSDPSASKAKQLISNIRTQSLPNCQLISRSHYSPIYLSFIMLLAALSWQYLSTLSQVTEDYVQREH
In the case of `CCCN(Cc1ccc(Oc2ccccc2)cc1)C(=O)[C@@H]1[C@H](C(=O)O)[C@@H](C(=O)N(CCC)Cc2ccc(Oc3ccccc3)cc2)O[C@H]1C(=O)O`, the IC50 is reported as “Not Active”. With `CCCN(Cc1ccc(Oc2ccccc2)cc1)C(=O)[C@H]1C[C@@H](C(=O)N(CCC)Cc2ccc(Oc3ccccc3)cc2)[C@](CC(=O)O)(C(=O)O)C1` the IC50 was “Not Active”.

These compounds were tested against T2, Squalene synthase (Rattus norvegicus) (UniProt Q02769) (assay: Percent inhibition of squalene synthase from rat liver microsomes using [3H]farnesyl pyrophosphate (FPP) as substrate at 1 uM concentration).
T2 sequence (whole entry): T1 sequence (Q02769 whole entry)
Compound `CCCN(Cc1ccc(Oc2ccccc2)cc1)C(=O)[C@@H]1[C@@H](C(=O)N(CCC)Cc2ccc(Oc3ccccc3)cc2)[C@H](C(=O)O)C[C@@H]1C(=O)O` has an inhibition of 45%. Work on `CCCN(Cc1ccc(Oc2ccccc2)cc1)C(=O)[C@H]1C[C@@H](C(=O)N(CCC)Cc2ccc(Oc3ccccc3)cc2)[C@@](CC(=O)O)(C(=O)O)C1` yielded an inhibition of 44%. For `CCCN(Cc1ccc(Oc2ccccc2)cc1)C(=O)[C@@H]1[C@@H](C(=O)N(CCC)Cc2ccc(Oc3ccccc3)cc2)[C@@H](C(=O)O)C[C@@H]1C(=O)O`, the inhibition was 24%. Compound `CCCN(Cc1ccc(Oc2ccccc2)cc1)C(=O)[C@H]1C[C@@H](C(=O)N(CCC)Cc2ccc(Oc3ccccc3)cc2)[C@@](CC(=O)O)(C(=O)O)[C@H]1C(=O)O` has an inhibition of 25%. `CCCN(Cc1ccc(Oc2ccccc2)cc1)C(=O)[C@H]1C[C@@H](C(=O)N(CCC)Cc2ccc(Oc3ccccc3)cc2)[C@@](CC(=O)O)(C(=O)O)[C@@H]1C(=O)O` was tested, and the inhibition was 38%.

What follows are compounds tested against T1, Squalene synthase (assay: Compound was tested for inhibition of squalene synthase from rat liver microsomes using [3H]farnesyl pyrophosphate (FPP) as substrate).
Work on `CCCN(Cc1ccc(Oc2ccccc2)cc1)C(=O)[C@H]1[C@@H](C(=O)O)[C@@H](C(=O)N(CCC)Cc2ccc(Oc3ccccc3)cc2)C[C@H]1C(=O)O` yielded an IC50 of 2900 nM. `CCCN(Cc1ccc(Oc2ccccc2)cc1)C(=O)[C@H]1[C@@H](C(=O)O)[C@H](C(=O)O)O[C@@H]1C(=O)N(CCC)Cc1ccc(Oc2ccccc2)cc1` was tested, and the IC50 was 3000 nM. `CCCN(Cc1ccc(Oc2ccccc2)cc1)C(=O)[C@@H]1[C@H](C(=O)N(CCC)Cc2ccc(Oc3ccccc3)cc2)[C@H](C(=O)O)C[C@@H]1C(=O)O` showed an IC50 of 9100 nM. `CCCN(Cc1ccc(Oc2ccccc2)cc1)C(=O)[C@H]1C[C@@H](C(=O)N(CCC)Cc2ccc(Oc3ccccc3)cc2)[C@H](C(=O)O)[C@H]1C(=O)O` gave an IC50 of 580 nM. With `CCCN(Cc1ccc(Oc2ccccc2)cc1)C(=O)[C@H]1C[C@H](C(=O)N(CCC)Cc2ccc(Oc3ccccc3)cc2)[C@H](C(=O)O)[C@H]1C(=O)O` the IC50 was 170 nM. Compound `CCCN(Cc1ccc(Oc2ccccc2)cc1)C(=O)[C@H]1C[C@@H](C(=O)N(CCC)Cc2ccc(Oc3ccccc3)cc2)[C@](CC(=O)O)(C(=O)O)[C@H]1C(=O)O` has an IC50 of 240 nM.
